Reference: publication PMC10683028 (Journal of Medicinal Chemistry, 2023)
≈ marks a conversion by molar mass, not a printed value. Like-named read-outs stand apart in the source and are kept apart here.

Assays:
[1] = mouse
Protocol: Murine pharmacokinetic studies were performed exactly as reported.[40]

[2] = pH 7.4
Protocol: Test compounds were prepared as 0.5 mM solutions in 50:50 acetonitrile:water and analyzed by reversed-phase HPLC-UV (wavelength 254 nm) using a Phenomenex Luna C18 100 Å 150 × 4.6 mm 5 μm column with a gradient of aqueous phase (50 mM ammonium acetate, pH 7.4) and mobile phase (acetonitrile) as described.[41],[42]

in vitro = conditions: PAMPA, pH 7.4
Protocol: (§1) In vitro ADME experiments were performed exactly as reported.[38]−[40]

physchem = conditions: aqueous medium at pH 7.4, pH 7.4
Protocol: as §1

Row | Compound | CHI-logDpH7.4 [2] | Papp (in vitro) [×10⁻⁶ cm/s] | further results
1 | COc1ccc(-c2noc(C(=O)NCCc3ccc(C(=O)N4CC(OC)C4)cc3)n2)cc1OCC1(O)CC1 [compound 80, 3-(3-((1-Hydroxycyclopropyl)methoxy)-4-methoxyphenyl)-N-(4-(3-methoxyazetidine-1-carbonyl)phenethyl)-1,2,4-oxadiazole-5-carboxamide] |  |  | AUC0–480 ([1]; IV 3 mg/kg): 81 µg·min/mL; T1/2 ([1]; IV 3 mg/kg): 24 min; Vdss ([1]; IV 3 mg/kg): 0.9 L/kg; AUC0–480 ([1]; PO 10 mg/kg): 4 µg·min/mL; Cmax ([1]; PO 10 mg/kg): 61 ng/mL; F ([1]; PO 10 mg/kg): 1.5%; Tmax ([1]; PO 10 mg/kg): 30 min
2 | COc1ccc(-c2noc(C(=O)NCCc3ccc(C(=O)N4CCC4)nc3)n2)cc1OC [compound 25, N-(2-(6-(Azetidine-1-carbonyl)pyridin-3-yl)ethyl)-3-(3,4-dimethoxyphenyl)-1,2,4-oxadiazole-5-carboxamide] | 1.9 | 5.4 | 
3 | COc1ccc(-c2noc(C(=O)NC[C@H](C)c3ccccc3)n2)cc1OC [compound 8, 3-(3,4-Dimethoxyphenyl)-N-[(2R)-2-phenylpropyl]-1,2,4-oxadiazole-5-carboxamide] | 3.3 | 5.5 | 
4 | O=C(NCCc1ccccc1)c1nc(-c2ccccc2)no1 [compound 4, 3-Phenyl-N-(2-phenylethyl)-1,2,4-oxadiazole-5-carboxamide] | 3.2 |  | 
5 | COc1ccc(-c2noc(C(=O)NCCc3ccc(C(=O)N4CC(OC)C4)cc3)n2)cc1OC [compound 15, 3-(3,4-Dimethoxyphenyl)-N-(4-(3-methoxyazetidine-1-carbonyl)phenethyl)-1,2,4-oxadiazole-5-carboxamide] | 2.1 |  | AUC0–480 ([1]; IV 3 mg/kg): 56 µg·min/mL; T1/2 ([1]; IV 3 mg/kg): 18 min; Vdss ([1]; IV 3 mg/kg): 1.1 L/kg; AUC0–480 ([1]; PO 200 mg/kg): 48 µg·min/mL; Cmax ([1]; PO 200 mg/kg): 151 ng/mL; F ([1]; PO 200 mg/kg): 1.5%; Tmax ([1]; PO 200 mg/kg): 120 min
6 | COc1ccc(-c2noc(C(=O)NCC(C)(C)c3ccccc3)n2)cc1OC [compound 7, 3-(3,4-Dimethoxyphenyl)-N-(2-methyl-2-phenyl-propyl)-1,2,4-oxadiazole-5-carboxamide] | 3.7 |  | 
7 | COc1ccc(-c2noc(C(=O)NCCc3ccccc3)n2)cc1OC [compound 106] |  |  | solubility (physchem): 51 µM (≈ 18 µg/mL)
8 | COc1ccc(-c2noc(C(=O)NCCc3ccc(C(=O)N4CCC4)cc3)n2)cc1OC [compound 14, N-[2-[4-(Azetidine-1-carbonyl)phenyl]ethyl]-3-(3,4-dimethoxyphenyl)-1,2,4-oxadiazole-5-carboxamide] | 2.1 | 7.1 | 
9 | COc1ccc(-c2nc(C(=O)NCCc3ccccc3)no2)cc1OC [compound 90, 5-(3,4-Dimethoxyphenyl)-N-phenethyl-1,2,4-oxadiazole-3-carboxamide] | 2.9 |  | 
10 | COc1cccc(CCNC(=O)c2nc(-c3ccc(OC)c(OC)c3)no2)c1 [compound 19, 3-(3,4-Dimethoxyphenyl)-N-[2-(3-methoxyphenyl)ethyl]-1,2,4-oxadiazole-5-carboxamide] | 2.9 |  | 
11 | COc1ccc(-c2noc(C(=O)NC(C#N)Cc3ccc(C(=O)N4CC5(COC5)C4)cc3)n2)cc1OC (stereo not drawn) [compound 44, N-(2-(4-(2-Oxa-6-azaspiro[3.3]heptane-6-carbonyl)phenyl)-1-cyanoethyl)-3-(3,4-dimethoxyphenyl)-1,2,4-oxadiazole-5-carboxamide] | 2.1 | 0.6 | AUC0–480 ([1]; PO 10 mg/kg): 5 µg·min/mL; Cmax ([1]; PO 10 mg/kg): 56 ng/mL; Tmax ([1]; PO 10 mg/kg): 300 min
12 | COc1ccc(CCNC(=O)c2nc(-c3ccccc3)no2)cc1OC [compound 107] | 2.8 |  | 
13 | COc1ccc(CCNC(=O)c2nc(-c3ccc(OC)c(OC)c3)no2)cc1OC [compound 50, 3-(3,4-dimethoxyphenyl)-N-[2-(3,4-dimethoxyphenyl)ethyl]-1,2,4-oxadiazole-5-carboxamide] | 2.5 | 7.4 | 
14 | COc1cc(-c2noc(C(=O)NCCc3ccc(C(=O)N4CCC4)cc3)n2)ccc1F [compound 62, N-(4-(Azetidine-1-carbonyl)phenethyl)-3-(4-fluoro-3-methoxyphenyl)-1,2,4-oxadiazole-5-carboxamide] | 2.6 |  | 
15 | COc1ccc(-c2noc(C(=O)NCCN3CCOCC3)n2)cc1OC [compound 108] | 1.4 |  | 
16 | COc1ccc(-c2noc(C(=O)NCCc3ccc(C(=O)N4CC(F)C4)cc3)n2)cc1OC [compound 16, 3-(3,4-Dimethoxyphenyl)-N-(4-(3-fluoroazetidine-1-carbonyl)phenethyl)-1,2,4-oxadiazole-5-carboxamide] | 2.2 | 8.5 | 
17 | COc1ccc(-c2noc(C(=O)NCCc3ccc(C(=O)N4CCC4)cc3)n2)cc1F [compound 61, N-(4-(Azetidine-1-carbonyl)phenethyl)-3-(3-fluoro-4-methoxyphenyl)-1,2,4-oxadiazole-5-carboxamide] | 2.6 |  | 
18 | COc1ccc(-c2noc(C(=O)NCCc3ccc(C(=O)O)cc3)n2)cc1OC [compound 6, 4-[2-[[3-(3,4-Dimethoxyphenyl)-1,2,4-oxadiazole-5-carbonyl]amino]ethyl]benzoic Acid] |  | 0.6 | 

Row | Compound | CHI-logDpH7.4 [2] | Papp (in vitro) [×10⁻⁶ cm/s] | further results
19 | COc1ccc(-c2noc(C(=O)NCCc3ccc(C(=O)N4CC(OC)C4)cc3)n2)cc1OC1CCC1 [compound 78, 3-[3-(Cyclobutoxy)-4-methoxy-phenyl]-N-[2-[4-(3-methoxyazetidine-1-carbonyl)phenyl]ethyl]-1,2,4-oxadiazole-5-carboxamide] | 2.9 |  | 
20 | O=C(NCCc1ccc(C(=O)N2CCC2)cc1)c1nc(-c2ccc3nc[nH]c3c2)no1 [compound 63, N-(4-(Azetidine-1-carbonyl)phenethyl)-3-(1H-benzo[d]imidazol-6-yl)-1,2,4-oxadiazole-5-carboxamide] | 1.3 | 0.7 | 
21 | COc1ccc(-c2noc(C(=O)NCCc3ccc(C(=O)N4CC(OC)C4)cc3)n2)cc1OC1CC1 [compound 79, 3-(3-Cyclopropoxy-4-methoxyphenyl)-N-(4-(3-methoxyazetidine-1-carbonyl)phenethyl)-1,2,4-oxadiazole-5-carboxamide] | 2.6 | 4.6 | 
22 | O=C(NCCc1ccc(C(=O)N2CCC2)cc1)c1nc(-c2ccc3cc[nH]c3c2)no1 [compound 65, N-(4-(Azetidine-1-carbonyl)phenethyl)-3-(1H-indol-6-yl)-1,2,4-oxadiazole-5-carboxamide] | 2.3 | 4.4 | 
23 | O=C(NCCc1ccc(C(=O)N2CCC2)cc1)c1nc(-c2ccc3cn[nH]c3c2)no1 [compound 66, N-(4-(Azetidine-1-carbonyl)phenethyl)-3-(1H-indazol-6-yl)-1,2,4-oxadiazole-5-carboxamide] | 1.6 | 5.5 | 
24 | COc1ccc(-c2noc(C(=O)NC(C#N)Cc3ccc(C(=O)N4CCC4)cc3)n2)cc1OC (stereo not drawn) [compound 33, N-(2-(4-(Azetidine-1-carbonyl)phenyl)-1-cyanoethyl)-3-(3,4-dimethoxyphenyl)-1,2,4-oxadiazole-5-carboxamide] | 2.1 | 2.8 | 
25 | COc1ccc(-c2noc(C(=O)NC(C#N)Cc3ccccc3)n2)cc1OC (stereo not drawn) [compound 38, N-(1-Cyano-2-phenylethyl)-3-(3,4-dimethoxyphenyl)-1,2,4-oxadiazole-5-carboxamide] | 3.1 | 7.2 | 
26 | O=C(NCCc1ccc(C(=O)N2CCC2)cc1)c1nc(-c2ccc3ccoc3c2)no1 [compound 64, N-(4-(Azetidine-1-carbonyl)phenethyl)-3-(benzofuran-6-yl)-1,2,4-oxadiazole-5-carboxamide] | 2.5 | 7 | 
27 | COc1ccc(-c2noc(C(=O)NCCc3cccnc3)n2)cc1OC [compound 5, 3-(3,4-Dimethoxyphenyl)-N-[2-(3-pyridyl)ethyl]-1,2,4-oxadiazole-5-carboxamide] | 1.8 | 7.7 | 
28 | COc1ccc(-c2n[nH]c(C(=O)NCCc3ccc(C(=O)N4CCC4)cc3)n2)cc1OC [compound 101, N-(4-(Azetidine-1-carbonyl)phenethyl)-3-(3,4-dimethoxyphenyl)-1H-1,2,4-triazole-5-carboxamide] | 1.3 |  | 
29 | COc1cccc(-c2noc(C(=O)NCCc3ccc(C(=O)N4CCC4)cc3)n2)c1 [compound 67, N-(4-(Azetidine-1-carbonyl)phenethyl)-3-(3-methoxyphenyl)-1,2,4-oxadiazole-5-carboxamide] | 2.4 | 10.1 | 
30 | COc1ccc(-c2noc(CNCCc3ccccc3)n2)cc1OC [compound 53, N-[[3-(3,4-Dimethoxyphenyl)-1,2,4-oxadiazol-5-yl]methyl]-2-phenyl-ethanamine] | 2.9 |  | 
31 | COc1ccc(-c2noc(C(=O)NC(C#N)Cc3ccc(C(=O)N4CC(OC)C4)cc3)n2)cc1OCC1(O)CC1 (stereo not drawn) [compound 45, N-[1-Cyano-2-[4-(3-methoxyazetidine-1-carbonyl)phenyl]ethyl]-3-[3-[(1-hydroxycyclopropyl)methoxy]-4-methoxyphenyl]-1,2,4-oxadiazole-5-carboxamide] |  |  | solubility (physchem): 152 µM (≈ 83.2 µg/mL)
32 | COc1ccc(-c2noc(C(=O)NCCc3ccc(C(=O)N4CC(F)(F)C4)cc3)n2)cc1OC [compound 17, N-(4-(3,3-Difluoroazetidine-1-carbonyl)phenethyl)-3-(3,4-dimethoxyphenyl)-1,2,4-oxadiazole-5-carboxamide] | 2.6 | 6.3 | 
33 | COc1ccc(CCN(C)C(=O)c2nc(-c3ccc(OC)c(OC)c3)no2)cc1OC [compound 51, 3-(3,4-Dimethoxyphenyl)-N-[2-(3,4-dimethoxyphenyl)ethyl]-N-methyl-1,2,4-oxadiazole-5-carboxamide] | 2.6 |  | 
34 | COc1ccc(-c2noc(C(=O)NCCc3ccc(C(N)=O)cc3)n2)cc1OC [compound 11, N-[2-(4-Carbamoylphenyl)ethyl]-3-(3,4-dimethoxyphenyl)-1,2,4-oxadiazole-5-carboxamide] | 1.7 | 2.9 | 
35 | CNC(=O)c1ccc(CCNC(=O)c2nc(-c3ccc(OC)c(OC)c3)no2)cc1 [compound 12, 3-(3,4-Dimethoxyphenyl)-N-[2-[4-(methylcarbamoyl)phenyl]ethyl]-1,2,4-oxadiazole-5-carboxamide] | 1.8 | 4.8 | 
